For 1 compound, KD results are on record in PMC4557640 (2015).

Assay [1] concerns Aod(xtal) (RNA, riboswitch) GGGUCGUGACUGGCGAACAGGUGGGAAACCACCGGGGAGCGACCCUUGCCGCCCGCCUGGGCAA
The experiment in a line: ITC. The note with it: 135 mM KCl, 15 mM NaCl, 10 mM MgCl2; 10 mM K-HEPES pH 8.0.

The test system of assay [2] is Aod(xtal-wtL2) (RNA, riboswitch) GGGUCGUGACUGGCGAACAGGUGGGCCACCACCGGGGAGCGACCCUUGCCGCCCGCCUGGGCAA
Briefly: ITC. The note with it: 135 mM KCl, 15 mM NaCl, 10 mM MgCl2; 10 mM K-HEPES pH 8.0.

In the case of `NC(=O)c1ncn([C@@H]2O[C@H](COP(=O)(O)O)[C@@H](O)[C@H]2O)c1N`, the results for the KD in assay [1] and in assay [2] were 1.08 ± 0.06 µM and 0.47 ± 0.03 µM, respectively.
